Source: PMC9238401, “Peptide Conjugates Derived from flg15, Pep13, and PIP1 That Are Active against Plant-Pathogenic Bacteria and Trigger Plant Defense Responses” (Applied and Environmental Microbiology, 2022)
No end group written: not given here.

What was measured:
[1] = tested on: horse erythrocytes; conditions: TRIS buffer pH 7.2, 1 h, 37°C, absorbance 540 nm, relative to melittin 100 μM, ± confidence interval (α = 0.05)
Description: The toxicity of peptide conjugates to eukaryotic cells was determined as the ability to lyse erythrocytes (Table SB).
The hemolytic activity of the compounds was evaluated by determining hemoglobin release from erythrocyte suspensions of horse blood (5% vol/vol) (Oxoid) as previously described ([45]). Blood was centrifuged at 6000g for 5 min, washed three times with TRIS buffer (10 mM TRIS, 150 mM NaCl, pH 7.2) and diluted 10 times. Compounds were solubilized in TRIS buffer at 750, 500, 300, and 100 μM and mixed with horse erythrocytes (1:1 vol/vol). The mixture was incubated with continuous shaking for 1 h at 37°C. Then, the tubes were centrifuged at 3500g for 10 min, 80-μL aliquots of the supernatant were transferred to 100-well microplates (Bioscreen) and diluted with 80 μL water, and the absorbance measured at 540 nm (Bioscreen). […] The percentage of hemolysis (H) was calculated using the equation H = 100 × ([Op − Ob]/[Om − Ob]), where Op is the density for a given compound concentration, Ob is that for the buffer, and Om is that for the melittin positive control.

[2] = tested on: tobacco leaves; test: Effect of peptide infiltration on tobacco leaves (phytotoxicity); format: in vivo
Description: Peptide conjugates were also assayed for their toxicity in tobacco leaves (Fig. 3, Table SC). After 48 h of infiltration, melittin caused a necrotic area of 0.70 and 2.17 cm in diameter at 50 and 250 μM, respectively. The monomers were not phytotoxic at those concentrations; all of them led to lesions of ≤1.2 cm at 250 μM. All peptide conjugates were also less phytotoxic than melittin, causing necrotic lesions between 0.26 and 1.67 cm in diameter at 250 μM. In particular, 15 of the 30 conjugates led to a necrotic area of <1 cm at this concentration. In general, sequences incorporating BP13 were among the most phytotoxic.
Peptide conjugates were evaluated for their effect on infiltration on tobacco leaves as described previously ([41]). Peptide solutions of 50, 150, and 250 μM were infiltrated (100 μL) into the mesophylls of fully expanded tobacco leaves. Infiltrations were carried out in a single leaf, and for each peptide and dose, at least three leaves randomly distributed in different plants were inoculated. Control infiltrations with water (negative control) or melittin (positive control) at the same molar concentration were performed. The appearance of symptoms on the leaves was followed for 48 h after infiltration and measured as lesion diameter.

[3] = tested on: Xanthomonas axonopodis pv. vesicatoria 2133-2; conditions: TSB, 25°C, 48 h, OD 600 nm (Bioscreen C), three replicates, experiment repeated twice; MIC given as range
Source text: The corresponding monomers (flg15, BP13, Pep13, PIP1, BP16, BP100, BP143, BP387, BP475, and KSL-W) were included for comparison.
(§1) The following plant-pathogenic bacterial strains were used: Erwinia amylovora PMV6076 (Institut National de la Recherche Agronomique, Angers, France), Pseudomonas syringae pv. syringae EPS94 (Institut de Tecnologia Agroalimentària, University of Girona, Spain), Xanthomonas axonopodis pv. vesicatoria 2133-2, X. axonopodis pv. vesicatoria Xav206 (Xav) (D. F. Ritchie, Department of Plant Pathology, North Carolina State University), Pseudomonas syringae pv. actinidiae Psa3700.1.1, Xanthomonas fragariae Xf349-9A (Instituto Valenciano de Investigaciones Agrarias, Valencia, Spain), and Xanthomonas arboricola pv. pruni CFBP5563 (Collection Française de Bactéries Associées aux Plantes, Angers, France). All bacteria except for X. fragariae were stored in Luria Bertani (LB) broth supplemented with glycerol (20%) and maintained at −80°C. For X. fragariae, medium B ([80]) was used instead of LB. E. amylovora, X. arboricola pv. pruni, P. syringae pv. syringae, and P. syringae pv. actinidiae were scraped from the agar medium after growing for 24 h at 25°C, and X. axonopodis pv. vesicatoria and X. fragariae, after growing for 48 h at 25°C. The cell material was suspended in sterile water to obtain a suspension of 10^8 CFU mL^−1.
(§2) Lyophilized peptides were solubilized in sterile Milli-Q water to a final concentration of 1 mM and filter-sterilized through a 0.22-μm pore filter. […] Then, 20 μL of each dilution were mixed in a microtiter plate well with 20 μL of the corresponding suspension of the bacterial indicator, 160 μL of Trypticase soy broth (TSB) (bioMérieux, France) to a total volume of 200 μL. Three replicates for each combination of strain, compound, and concentration were used. Microbial growth was determined by optical density measurement at 600 nm (Bioscreen C; Labsystem, Helsinki, Finland). Microplates were incubated at 25°C with 20 s of shaking before hourly absorbance measurement for 48 h. The experiment was repeated twice. The MIC was taken as the lowest compound concentration with no growth at the end of the experiment.

[4] = tested on: Pseudomonas syringae pv. syringae EPS94; test: In vitro growth inhibition (MIC); format: cell-based; conditions: TSB, 25°C, 48 h, OD 600 nm (Bioscreen C), three replicates, experiment repeated twice; MIC given as range
Description: (§3) Peptide conjugates were tested for in vitro growth inhibition of the plant-pathogenic bacteria E. amylovora PMV6076, Xanthomonas arboricola pv. pruni CFBP5563, X. fragariae Xf349-9A, X. axonopodis pv. vesicatoria 2133-2, P. syringae pv. actinidiae Psa3700.1.1, and P. syringae pv. syringae EPS94 (Fig. 1, Table SA). The corresponding monomers (flg15, BP13, Pep13, PIP1, BP16, BP100, BP143, BP387, BP475, and KSL-W) were included for comparison.
as §1, §2

[5] = tested on: Pseudomonas syringae pv. actinidiae Psa3700.1.1; test: In vitro growth inhibition (MIC); format: cell-based; conditions: TSB, 25°C, 48 h, OD 600 nm (Bioscreen C), three replicates, experiment repeated twice; MIC given as range
Description: as §3, §1, §2

[6] = tested on: Erwinia amylovora PMV6076; test: In vitro growth inhibition (MIC); format: cell-based; conditions: TSB, 25°C, 48 h, OD 600 nm (Bioscreen C), three replicates, experiment repeated twice; MIC = lowest concentration with no growth, given as range
Description: as §3, §1, §2

[7] = tested on: Xanthomonas fragariae Xf349-9A; test: In vitro growth inhibition (MIC); format: cell-based; conditions: TSB, 25°C, 48 h, OD 600 nm (Bioscreen C), three replicates, experiment repeated twice; MIC given as range
Description: as §3, §1, §2

[8] = tested on: Xanthomonas arboricola pv. pruni CFBP5563; test: In vitro growth inhibition (MIC); format: cell-based; conditions: TSB, 25°C, 48 h, OD 600 nm (Bioscreen C), three replicates, experiment repeated twice; MIC given as range
Description: as §3, §1, §2

[9] = HPLC retention time as indicator of relative hydrophobicity; format: physicochemical; conditions: chromatographic, Kromasil 100 C18 (4.6 mm × 40 mm, 3 μm), linear gradient 2 to 100% B over 12 min, 1 mL/min; A 0.1% aqueous TFA, B 0.1% TFA in CH3CN; used as indicator of relative hydrophobicity
Description: The parameters related to the structure of the peptide conjugates (sequence, charge, hydrophobic ratio [HR], and HPLC retention time), as well as their physicochemical properties (grand average hydropathicity [GRAVY] and hydrophobic moment [<μH>]) obtained from the online programs ProtParam (Expasy server) and HeliQuest are included in Table 1.
Peptides were analyzed under standard analytical HPLC conditions. Method A: peptides were analyzed with a Dionex liquid chromatography instrument composed of a UV/Vis Dionex UVD170U detector, a P680 Dionex pump, an ASI-100 Dionex automatic injector, and Chromeleon 6.60 software. Detection was performed at a wavelength of 220 nm. Solvent A was 0.1% aqueous trifluoroacetic acid (TFA), and solvent B was 0.1% TFA in CH3CN. Analyses were carried out with a Kromasil 100 C18 (4.6 mm × 40 mm, 3 μm) column with a linear gradient of 2 to 100% B over 7 min at a flow rate of 1 mL/min. Method B: peptides were analyzed with a 1260 Infinity II liquid chromatography instrument (Agilent Technologies) composed of a diode array detector HS, a quaternary pump VL, a 1260 vial sampler, and OpenLab CDS ChemStation software. Analyses were carried out with a Kromasil 100 C18 (4.6 mm × 40 mm, 3 μm) column with a linear gradient of 2 to 100% B over 12 min at a flow rate of 1 mL/min.

[10] = 100 μL infiltrated into mesophyll, lesion diameter 48 h after infiltration, at least three leaves, ± confidence interval (α = 0.05)

Substance | Percent hemolysis at 50 μM [1] | Percent hemolysis at 150 μM [1] | Percent hemolysis at 250 μM [1] | Percent hemolysis at 375 μM [1] | Size of the lesions in infiltrated tobacco leaves at 50 μM [2, 10] | Size of the lesions in infiltrated tobacco leaves at 150 μM [2, 10] | Size of the lesions in infiltrated tobacco leaves at 250 μM [2, 10] | MIC, Xav [3] | MIC, Pss [4] | MIC, Psa [5] | MIC, Ea [6] | MIC, Xf [7] | MIC, Xap [8] | tR (min), HPLC retention time (method B) [9] | Size of the lesions in infiltrated tobacco leaves at 50 μM ([2]; in vivo) | Size of the lesions in infiltrated tobacco leaves at 150 μM ([2]; in vivo) | Size of the lesions in infiltrated tobacco leaves at 250 μM ([2]; in vivo)
FKLFKKILKVL-KKLfKKILKYL-NH2 [BP13-BP143, peptide conjugate, BP13 at N-terminus, BP143 at C-terminus] | 100 ± 0.6% | 100 ± 3.7% | 100 ± 3.2% | 100 ± 10.6% | 0.53 ± 0.18 cm | 0.88 ± 0.15 cm | 1.07 ± 0.37 cm | 1.6 to 3.1 µM | > 50 µM | > 50 µM | > 50 µM | 12.5 to 25 µM | 6.2 to 12.5 µM |  |  |  | 
FKLFKKILKVL-NH2 [BP13, reference compound] | 5 ± 0.2% | 13 ± 2% | 27 ± 3% | 42 ± 3% | 0.20 ± 0.24 cm | 0.48 ± 0.15 cm | 0.96 ± 0.19 cm | 50 to 100 µM | 12.5 to 25 µM | 3.1 to 6.2 µM | 25 to 50 µM | 25 to 50 µM | 6.2 to 12.5 µM |  |  |  | 
KKLFKKILKKL-FKLFKKILKVL-NH2 [BP16-BP13, peptide conjugate, BP16 at N-terminus, BP13 at C-terminus] | 100 ± 4.0% | 100 ± 2.3% | 100 ± 8.5% | 100 ± 2.1% | 0.68 ± 0.16 cm | 1.15 ± 0.28 cm | 1.52 ± 0.32 cm | 1.6 to 3.1 µM | 12.5 to 25 µM | 25 to 50 µM | > 50 µM | 12.5 to 25 µM | 6.2 to 12.5 µM |  |  |  | 
KKLFKKILKYL-FKLFKKILKVL-NH2 [BP100-BP13, peptide conjugate, BP100 at N-terminus, BP13 at C-terminus] | 100 ± 9.4% | 100 ± 5.5% | 98 ± 3.3% | 99 ± 3.7% | 0.73 ± 0.20 cm | 1.36 ± 0.23 cm | 1.46 ± 0.06 cm | 6.2 to 12.5 µM | > 50 µM | 25 to 50 µM | > 50 µM | 6.2 to 12.5 µM | 12.5 to 25 µM |  |  |  | 
KKLfKKILKYL-FKLFKKILKVL-NH2 [BP143-BP13, peptide conjugate, BP143 at N-terminus, BP13 at C-terminus] | 100 ± 6.1% | 100 ± 3.6% | 100 ± 7.1% | 100 ± 7.0% | 0.18 ± 0.10 cm | 0.40 ± 0.14 cm | 1.14 ± 0.36 cm | 6.2 to 12.5 µM | > 50 µM | 25 to 50 µM | > 50 µM | 6.2 to 12.5 µM | 12.5 to 25 µM |  |  |  | 
RINSAKDDAAGLQIA-KKLFKKILKYL-NH2 [flg15-BP100, peptide conjugate, flg15 at N-terminus, BP100 at C-terminus] | 48 ± 4.1% | 52 ± 4.3% | 63 ± 2.4% | 66 ± 9.2% | 0.46 ± 0.10 cm | 0.80 ± 0.22 cm | 1.02 ± 0.24 cm | 0.8 to 1.6 µM | 12.5 to 25 µM |  | 6.2 to 12.5 µM | 6.2 to 12.5 µM | 0.8 to 1.6 µM | 6.29 min |  |  | 
VWNQPVRGFKVYE-OH [Pep13, pathogen-associated molecular pattern (PAMP) from Phytophthora sojae; plant defense elicitor monomer] | 0 ± 0.6% | 0 ± 0.3% | 2 ± 0.1% | 0 ± 0.1% |  |  |  | > 50 µM | > 50 µM | > 50 µM | > 50 µM | > 50 µM | > 50 µM |  | 0 ± 0 cm | 0 ± 0 cm | 0 ± 0 cm
